# According to US4882359A, “Azacycloalkane derivatives, absorption promoters containing the derivatives as the effective ingredient and external preparations containing the absorption promoters” (priority 1986, dated 1989):
# Experiments:
# [1] = Percutaneous absorption of pindolol in rats, serum concentration by HPLC; assay type: in vivo, Wistar-strain male rats; details: for Activity (serum concentration of pindolol): relative to Control (Vehicle) = 1.0 of the same series in Table 5
# Method: There were provided groups each consisting of four Wistar-strain male rats each weighing 200 to 250 g and having their dorsal skin hair shorn with an electric shaver.
# Each of the test solutions (pindolol-containing preparations) was applied to the shorn dorsal skin of test rats of one of the groups in an amount of 150 μl/2.5×2.5 cm^2 and then sealed up. Three hours after the application of the test solution, the blood of the test rats was collected and measured for serum concentration of pindolol by HPLC.
# For comparison, the above procedure was followed except that there was used a control solution which was the same as said test solution except for non-use of any compounds of this invention, and also followed using a comparative test solution which was the same as the test solution except for the substitution of a comparative compound for the compound of this invention.
# glucose level in blood [2] = assay: Percutaneous absorption of glibenclamide: glucose level in blood of glucose-loaded rats; assay type: in vivo, Wistar-strain male rats; details: for Glucose level: glibenclamide 0.6 wt.% solution on dorsal skin, two hours after s.c. 20% glucose; for Inhibition rate: glucose level, relative to control group A and normal group
# Method: There were prepared control and test solutions having the following respective formulations (Table 8): […]
# In the tests, there were used groups each consisting of four Wistar-strain male rats which weighed about 200 to 250 g and abstained from food for 24 hours.
# Each of the control solutions A and B and the test solution indicated in the above Table 8 was applied to the dorsal skins, shorn by an electric clipper or shaver, of the rats of one group in an amount of 175 μl/2.5×2.5 cm^2 and then sealed up. Three hours after sealing up, 1.5 ml of 20% glucose was subcutaneously injected into said rats. Two hours after the glucose injection, the blood of the rats was collected and measured for glucose level in blood.
# For comparison, the above procedure was followed except that azone was substituted for the compound of Example 12 in the test solution.
# For further comparison, the blood of rats of one group which had been subjected only to 24 hours' abstinence from food (this group being hereinafter referred to as "normal group"), was measured for glucose level in blood. The rat groups to which the control solution A, the control solution B and the test solution were applied, are hereinafter referred to as "control group A", "control group B" and "test group", respectively.
# [3] = tested on: dorsal skin of Japanese-native rabbits; assay: Primary skin irritation test (Draize's method); assay type: in vivo; set-up: key to Average irritation score, 24 hours / Average irritation score, 48 hours / Average irritation score, 72 hours: Draize points: 0-2 mild, 2-6 moderate, 6-8 severe irritation; details: for Average irritation score, 24 hours: 3% solution in polyethylene glycol 300, 24 hours after removal of plaster; for Average irritation score, 48 hours: 3% solution in polyethylene glycol 300, 48 hours after removal of plaster; for Average irritation score, 72 hours: 3% solution in polyethylene glycol 300, 72 hours after removal of plaster; for Overall evaluation (skin irritation): graded from irritation scores at 24, 48 and 72 hours
# Method: As one of tests on the compounds of this invention for their topical toxicity, a primary skin irritation test was made on skins using rabbits as the subjects. More particularly, an adhesive plaster for use in batch tests, to which 100 μl of a 3% test solution of each of the compounds of Examples 12, 37, 57 and 73 of this invention in 100 ml of polyethylene glycol 300 had dropwise been applied, was applied to the hair-shorn dorsal skin of three Japanese-native rabbits weighing 2.5 to 3.0 kg each and then sealed up on the dorsal skin for 24 hours. The rabbits were evaluated three times for their dorsal skin irritative reaction 24, 48 and 72 hours after removal of the plaster by using a method in accordance with the Draize's method.
# The results are as shown in Table 18 in which the overall evaluation is represented by the following equation. [formula] and is graded into mild irritation (0-2 points), moderate irritation (2-6 points) and severe irritation (6-8 points).
# [4] = for Activity (phenol red permeation): relative to Control (Vehicle) = 1.0
# Method: There were investigated the effects of the compound of this invention on the percutneous penetration of phenol red which is difficult to be penetrated using the dorsal skin of female hairless mice (each 9 weeks old) by a diffusion cell method which comprised adding 0.5 ml of a sodium chloride injection containing 2 mM of phenol red to the donor side and measuring the amount of phenol red permeated into the receptor layer by high-pace optimal densitometric meter (559 nm).
# in vivo = details: rat
# glucose level in blood [5] = assay: Rectal absorption of insulin from suppository: glucose level in blood of rabbits; assay type: in vivo, male rabbits; details: for Changes of glucose level to the initial, 0.5 hr / Changes of glucose level to the initial, 1 hr / Changes of glucose level to the initial, 3 hrs: insulin suppository 0.3 g/kg rectal, 3% promoter where used
# Method: There were prepared the following suppositories for use in normal, control and test groups, respectively, each group consisting of five male rabbits weighing 2.5 to 3.5 kg each.
# The three suppositories were into the rectums of the rabbit groups in an amount of 0.3 g suppository/kg, respectively. Thereafter, blood was collected from the rabbits through their ear vein three times with the lapse of time to measure the three collected blood samples for glucose level in blood by a glucose oxidase method. […] The results are indicated in terms of a change in glucose level in blood with respect to the glucose level in blood prior to the administration of the suppositories.
# [6] = Skin penetration of 5-FU from test solution, diffusion cell method; assay type: in vitro ADME, female hairless mice; details: for Cumulative amount of 5-FU permeated, 24 hrs later / Cumulative amount of 5-FU permeated, 48 hrs later: 3.0 wt.% test compound, 5-FU 1.8 wt.% in ethanol/water; for Activity (5-FU permeation): relative to Control (Vehicle) = 1.0
# [7] = Skin penetration of pindolol from test solution, diffusion cell method; assay type: in vitro ADME, female hairless mice; details: for Activity (pindolol permeation): test solution, relative to Control (Vehicle) = 1.0
molecule,measurement,setting,value
CCCCCCCOCCCCCN1CCCC1=O [Example 66],Activity (serum concentration of pindolol),[1],30.2
CCCCCCOCCCCCCN1CCCCCC1=O [Example 80],Activity (serum concentration of pindolol),[1],26.1
COc1ccc(Cl)cc1C(=O)NCCc1ccc(S(=O)(=O)NC(=O)NC2CCCCC2)cc1 [Glibenclamide],Glucose level,glucose level in blood [2],157 ± 7 mg/dL
same,effects on hypoglycemic activity,"glucose level in blood [2]; glibenclamide used alone, compared with control group A",not exhibit any effects on hypoglycemic activity
same,Inhibition rate,glucose level in blood [2],-3.6%
CCCCCCSCCCCCCN1CCCCCC1=O [Example 48],Activity (serum concentration of pindolol),[1],14.9
CCCCCCOCCCCCN1CCCCCC1=O [Example 76],Activity (serum concentration of pindolol),[1],8.3
CCCCCCCCSCCCN1CCCCCC1=O [Example 30],Activity (serum concentration of pindolol),[1],12.7
CCCCSCCCCCCCN1CCCCCC1=O [Example 49],Activity (serum concentration of pindolol),[1],23.2
CCCCCCCCCCOCCN1CCCC1=O [Example 57],Activity (serum concentration of pindolol),[1],33.0
same,"Average irritation score, 24 hours",[3],0.0 ± 0.0
same,"Average irritation score, 48 hours",[3],0.3 ± 0.3
same,"Average irritation score, 72 hours",[3],0.3 ± 0.3
same,Overall evaluation (skin irritation),[3],Mild (mild irritation (0-2 points))
same,Activity (phenol red permeation),[4],65.5
same,LD50 at 168 h,in vivo; po,> 5000 mg/kg
same,LD50 at 168 h,in vivo; sc,> 5000 mg/kg
CCCCCCCOCCCCN1CCCCCC1=O [Example 73],Activity (serum concentration of pindolol),[1],34.1
same,"Average irritation score, 24 hours",[3],0.3 ± 0.3
same,"Average irritation score, 48 hours",[3],0.3 ± 0.3
same,"Average irritation score, 72 hours",[3],0.5 ± 0.5
same,Overall evaluation (skin irritation),[3],Mild (mild irritation (0-2 points))
same,Activity (phenol red permeation),[4],56.3
same,LD50 at 168 h,in vivo; po,> 5000 mg/kg
same,LD50 at 168 h,in vivo; sc,> 5000 mg/kg
"CCCCCCCCOCCCN1CCCCCC1=O [Example 4, 1-[3-(n-octyloxy)propyl] azacycloheptane-2-one]",Activity (serum concentration of pindolol),[1],31.5
"C[S+](C)[O-] [DMSO, dimethylsulfoxide, reference compound]",Serum concentration of pindolol,"[1]; rat, in vivo, 180 min",12.0 ± 4.2 ng/mL
same,Activity (serum concentration of pindolol),[1],1.0
CCCCCCSCCCCN1CCCCCC1=O [Example 36],Activity (serum concentration of pindolol),[1],19.6
"CCCCCCCCCCCCN1CCCCCC1=O [Azone, 1-n-dodecylazacycloheptane-2-one, reference compound]",Glucose level,glucose level in blood [2],133 ± 13 mg/dL
same,Inhibition rate,glucose level in blood [2],25.0%
same,"Changes of glucose level to the initial, 0.5 hr",glucose level in blood [5],-4 mg/dL
same,"Changes of glucose level to the initial, 1 hr",glucose level in blood [5],+2 mg/dl
same,"Changes of glucose level to the initial, 3 hrs",glucose level in blood [5],+1 mg/dl
same,"Average irritation score, 24 hours",[3],3.8 ± 1.3
same,"Average irritation score, 48 hours",[3],3.8 ± 1.7
same,"Average irritation score, 72 hours",[3],5.5 ± 1.9
same,Overall evaluation (skin irritation),[3],Moderate (moderate irritation (2-6 points))
same,irritating actions on the skins (in words),"[3]; rabbit, in vivo",moderate grade irritating actions
same,"Cumulative amount of phenol red permeated, 24 hrs later","[4]; 3.0 wt.% test compound, phenol red, 24 hrs",8.4 ± 7.6 µM
same,"Cumulative amount of phenol red permeated, 48 hrs later","[4]; 3.0 wt.% test compound, phenol red, 48 hrs",14.5 ± 0.7 µM
same,Activity (phenol red permeation),[4],24.2
same,LD50 at 168 h,in vivo; po,> 5000 mg/kg
same,LD50 at 168 h,in vivo; sc,> 5000 mg/kg
CCCCCCCSCCCN1CCCCCC1=O [Example 29],Activity (serum concentration of pindolol),[1],14.8
CCCCCSCCCCN1CCCCCC1=O [Example 35],Activity (serum concentration of pindolol),[1],8.8
"CCCCCSCCCCCCN1CCCCCC1=O [Example 2, 1-[6-(n-pentylthio)hexyl] azacycloheptane-2-one]",Activity (serum concentration of pindolol),[1],12.7
CCCCCCCCCCSCCCN1CCCC1=O [Example 16],Activity (serum concentration of pindolol),[1],32.0
CCCCCCCCSCCCCN1CCCCCC1=O [Example 38],Activity (serum concentration of pindolol),[1],12.0
"CCCCCCCCCSCCN1CCCC1=O [Example 1, 1-[2-(n-nonylthio)ethyl] azacyclopentane-2-one]",Activity (serum concentration of pindolol),[1],30.0
CCCCCCCSCCCCCN1CCCC1=O [Example 20],Activity (serum concentration of pindolol),[1],40.6
"CN1CCCC1=O [1-methyl-2-pyrolidone, 1-methyl-2-pyrrolidone, reference compound]",Activity (serum concentration of pindolol),[1],1.9
same,"Cumulative amount of 5-FU permeated, 24 hrs later",[6],83 ± 15 µM
same,"Cumulative amount of 5-FU permeated, 48 hrs later",[6],192 ± 20 µM
same,Activity (5-FU permeation),[6],0.9
same,LD50 at 168 h,in vivo; po,1000 to 2000 mg/kg
same,LD50 at 168 h,in vivo; sc,2000 to 5000 mg/kg
CCCCCOCCCCCCN1CCCC1=O [Example 67],Activity (serum concentration of pindolol),[1],22.8
CCCCCCCCCSCCCCN1CCCCCC1=O [Example 39],Activity (serum concentration of pindolol),[1],18.0
CCCSCCCCCCCCN1CCCCCC1=O [Example 50],Activity (serum concentration of pindolol),[1],6.6
CCCCCCCCCSCCCN1CCCCCC1=O [Example 31],Activity (serum concentration of pindolol),[1],27.5
"Pyrrolidone carboxylic acid [Pyrolidone carbonic acid, reference compound]",Activity (serum concentration of pindolol),[1],2.1
same,Activity (pindolol permeation),[7],0.5
CCCCCCCSCCCCN1CCCCCC1=O [Example 37],Activity (serum concentration of pindolol),[1],16.2
same,"Average irritation score, 24 hours",[3],0.6 ± 2
same,"Average irritation score, 48 hours",[3],0.5 ± 0.5
same,"Average irritation score, 72 hours",[3],0.5 ± 0.5
same,Overall evaluation (skin irritation),[3],Mild (mild irritation (0-2 points))
same,Activity (phenol red permeation),[4],54.2
same,LD50 at 168 h,in vivo; po,> 5000 mg/kg
same,LD50 at 168 h,in vivo; sc,> 5000 mg/kg
"Insulin: Insulin (Bovine, International Unit); control group (only insulin used)",effects on glucose level in blood (in words),glucose level in blood [5]; compared with the normal group,exhibited no effects on glucose level in blood
same,"Changes of glucose level to the initial, 0.5 hr",glucose level in blood [5],-1 mg/dL
same,"Changes of glucose level to the initial, 1 hr",glucose level in blood [5],+3 mg/dl
same,"Changes of glucose level to the initial, 3 hrs",glucose level in blood [5],+1 mg/dl
CCCCCCCSCCCCCN1CCCCCC1=O [Example 43],Activity (serum concentration of pindolol),[1],16.2
CCCCCCCCCCOCCCN1CCCCCC1=O [Example 72],Activity (serum concentration of pindolol),[1],27.2
"CCN1CCCC1=O [1-ethyl-2-pyrolidone, 1-ethyl-2-pyrrolidone]",Activity (serum concentration of pindolol),[1],2.8
same,"Cumulative amount of pindolol permeated, 24 hrs later",[7],1.3 ± 0.1 µM
same,"Cumulative amount of pindolol permeated, 48 hrs later",[7],2.7 ± 0.2 µM
same,Activity (pindolol permeation),[7],0.7
same,"Cumulative amount of 5-FU permeated, 24 hrs later",[6],96 ± 15 µM
same,"Cumulative amount of 5-FU permeated, 48 hrs later",[6],178 ± 9 µM
same,Activity (5-FU permeation),[6],0.9
CCCCCCCCOCCCCN1CCCCCC1=O [Example 74],Activity (serum concentration of pindolol),[1],28.9
